Source: ChEMBL document CHEMBL1201862, “PubChem BioAssay data set” (2004)
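Compound exposure: 48 hours, 5 concentrations, 96-well plates. At the GI50, growth is halved.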 Activity calls are given as the source filed them. No stated cut-off is given here; in the data, active = GI50 up to about 1.1 µM and inactive = higher.

Key:
Assay in all cases: NCI-60 cell line screen, 48 h
NCI-H460 = system: NCI-H460
SNB-75 = system: SNB-75
HL-60 = system: HL-60
OVCAR-4 = system: OVCAR-4
SK-OV-3 = system: SK-OV-3
KM-20L2 = system: KM-20L2
RXF 393 = system: RXF 393
UACC-257 = system: UACC-257
RPMI-8226 = system: RPMI-8226
SW-620 = system: SW-620
CCRF-CEM = system: CCRF-CEM
NCI-H23 = system: NCI-H23
Malme-3M = system: Malme-3M
NCI-H522 = system: NCI-H522
HCT-15 = system: HCT-15
SK-MEL-28 = system: SK-MEL-28
OVCAR-3 = system: OVCAR-3

O=C(/C=C(\O)C(=O)O)/C=C(\O)c1ccccc1Cl
GI50 (NCI-H460): > 100 µM (inactive) | GI50 (SNB-75): > 79.8 µM (inactive) | GI50 (HL-60): > 100 µM (inactive) | GI50 (OVCAR-4): > 100 µM (inactive) | GI50 (SK-OV-3): > 100 µM (inactive) | GI50 (KM-20L2): > 100 µM (inactive) | GI50 (RXF 393): > 100 µM (inactive) | GI50 (UACC-257): > 100 µM (inactive) | GI50 (RPMI-8226): > 100 µM (inactive) | GI50 (SW-620): > 100 µM (inactive) | GI50 (CCRF-CEM): > 100 µM (inactive) | GI50 (NCI-H23): > 100 µM (inactive) | GI50 (Malme-3M): > 100 µM (inactive) | GI50 (NCI-H522): > 100 µM (inactive) | GI50 (HCT-15): > 100 µM | GI50 (SK-MEL-28): > 100 µM (inactive) | GI50 (OVCAR-3): > 100 µM (inactive)

COc1ccc(/C=C2\CCCC(C(NO)c3ccc(OC)cc3)C2=NO)cc1 (stereo not given)
GI50 (NCI-H460): 59.8 µM (inactive) | GI50 (SNB-75): 26.3 µM (inactive) | GI50 (HL-60): 16.2 µM (inactive) | GI50 (OVCAR-4): 29.5 µM (inactive) | GI50 (SK-OV-3): > 100 µM (inactive) | GI50 (KM-20L2): 61.9 µM (inactive) | GI50 (RXF 393): 26.7 µM (inactive) | GI50 (UACC-257): 38.1 µM (inactive) | GI50 (RPMI-8226): 28.8 µM (inactive) | GI50 (SW-620): 44.3 µM (inactive) | GI50 (CCRF-CEM): 33.9 µM (inactive) | GI50 (NCI-H23): 38.6 µM (inactive) | GI50 (Malme-3M): 34.1 µM (inactive) | GI50 (NCI-H522): 27.2 µM (inactive) | GI50 (HCT-15): 35.6 µM | GI50 (SK-MEL-28): 26.9 µM (inactive) | GI50 (OVCAR-3): 47.3 µM (inactive)

CC(=O)O[C@H]1C(=O)[C@@]2(C)C(C(OC(=O)c3ccccc3)[C@]3(O)CC(OC(=O)C(O)C(NC(=O)c4ccc(C(F)(F)F)cc4)c4ccccc4)C(C)=C1C3(C)C)[C@]1(OC(C)=O)CO[C@@H]1C[C@@H]2O (stereo not given in full)
GI50 (NCI-H460): 0.103 µM (active) | GI50 (SNB-75): 0.00375 µM (active) | GI50 (HL-60): 0.0951 µM (active) | GI50 (OVCAR-4): 8.77 µM (inactive) | GI50 (SK-OV-3): 0.129 µM (active) | GI50 (KM-20L2): 0.0767 µM (active) | GI50 (UACC-257): 0.236 µM (active) | GI50 (RPMI-8226): 0.0628 µM (active) | GI50 (SW-620): 0.0552 µM (active) | GI50 (CCRF-CEM): 0.175 µM (active) | GI50 (NCI-H23): 0.136 µM (active) | GI50 (Malme-3M): 0.109 µM (active) | GI50 (NCI-H522): 0.0755 µM (active) | GI50 (HCT-15): 4.97 µM | GI50 (SK-MEL-28): 0.128 µM (active) | GI50 (OVCAR-3): 0.0757 µM (active)

O=C(O)Cc1cc(=O)oc2cc(O)c(Cl)cc12
GI50 (NCI-H460): > 100 µM (inactive) | GI50 (SNB-75): 28.6 µM (inactive) | GI50 (HL-60): > 100 µM (inactive) | GI50 (OVCAR-4): > 100 µM (inactive) | GI50 (SK-OV-3): > 100 µM (inactive) | GI50 (KM-20L2): > 100 µM (inactive) | GI50 (RPMI-8226): > 100 µM (inactive) | GI50 (SW-620): > 100 µM (inactive) | GI50 (CCRF-CEM): > 100 µM (inactive) | GI50 (NCI-H23): > 100 µM (inactive) | GI50 (Malme-3M): > 100 µM (inactive) | GI50 (NCI-H522): > 100 µM (inactive) | GI50 (HCT-15): > 100 µM | GI50 (SK-MEL-28): > 100 µM (inactive) | GI50 (OVCAR-3): > 100 µM (inactive)

CC/C(CC(=O)CCC(=O)Nc1ccc(C)c(C)c1)=N\NC(=O)C(N)=O
GI50 (SNB-75): > 100 µM (inactive) | GI50 (HL-60): > 100 µM (inactive) | GI50 (OVCAR-4): > 100 µM (inactive) | GI50 (SK-OV-3): > 100 µM (inactive) | GI50 (KM-20L2): > 100 µM (inactive) | GI50 (UACC-257): > 100 µM (inactive) | GI50 (RPMI-8226): > 100 µM (inactive) | GI50 (SW-620): > 100 µM (inactive) | GI50 (CCRF-CEM): > 100 µM (inactive) | GI50 (NCI-H23): > 100 µM (inactive) | GI50 (Malme-3M): > 100 µM (inactive) | GI50 (NCI-H522): > 100 µM (inactive) | GI50 (HCT-15): > 100 µM | GI50 (SK-MEL-28): > 100 µM (inactive) | GI50 (OVCAR-3): > 100 µM (inactive)

CCC[S+]([O-])c1nc(COC(=O)NC)c(COC(=O)NC)n1C (stereo not given)
GI50 (NCI-H460): > 100 µM (inactive) | GI50 (SNB-75): > 100 µM (inactive) | GI50 (HL-60): > 100 µM (inactive) | GI50 (OVCAR-4): > 100 µM (inactive) | GI50 (SK-OV-3): > 100 µM (inactive) | GI50 (KM-20L2): > 100 µM (inactive) | GI50 (RXF 393): > 100 µM (inactive) | GI50 (UACC-257): > 100 µM (inactive) | GI50 (RPMI-8226): > 100 µM (inactive) | GI50 (SW-620): > 100 µM (inactive) | GI50 (CCRF-CEM): > 100 µM (inactive) | GI50 (NCI-H23): > 100 µM (inactive) | GI50 (Malme-3M): > 100 µM (inactive) | GI50 (NCI-H522): > 100 µM (inactive) | GI50 (HCT-15): > 100 µM | GI50 (SK-MEL-28): > 100 µM (inactive) | GI50 (OVCAR-3): > 100 µM (inactive)

Cc1c(N2CCN(C)CC2)nc2ccc(Cl)cc2c1-c1ccccc1
GI50 (NCI-H460): 17.5 µM (inactive) | GI50 (SNB-75): 16.7 µM (inactive) | GI50 (HL-60): 12.7 µM (inactive) | GI50 (OVCAR-4): 17.7 µM (inactive) | GI50 (SK-OV-3): 47.4 µM (inactive) | GI50 (KM-20L2): 15.7 µM (inactive) | GI50 (RXF 393): 15.9 µM (inactive) | GI50 (UACC-257): 17.9 µM (inactive) | GI50 (RPMI-8226): 18.9 µM (inactive) | GI50 (SW-620): 16.8 µM (inactive) | GI50 (CCRF-CEM): 17.5 µM (inactive) | GI50 (NCI-H23): 23.1 µM (inactive) | GI50 (Malme-3M): 16.9 µM (inactive) | GI50 (NCI-H522): 19.9 µM (inactive) | GI50 (HCT-15): 18.9 µM | GI50 (SK-MEL-28): 18 µM (inactive) | GI50 (OVCAR-3): 24.3 µM (inactive)

O=S(=O)(NCn1ccc2ccccc21)c1ccccc1
GI50 (NCI-H460): > 100 µM (inactive) | GI50 (SNB-75): > 100 µM (inactive) | GI50 (HL-60): 22.4 µM (inactive) | GI50 (SK-OV-3): > 100 µM (inactive) | GI50 (KM-20L2): > 100 µM (inactive) | GI50 (RXF 393): > 63.8 µM (inactive) | GI50 (UACC-257): > 88.7 µM (inactive) | GI50 (RPMI-8226): 21.5 µM (inactive) | GI50 (SW-620): 38.4 µM (inactive) | GI50 (CCRF-CEM): > 88.5 µM (inactive) | GI50 (NCI-H23): > 100 µM (inactive) | GI50 (Malme-3M): > 100 µM (inactive) | GI50 (NCI-H522): > 100 µM (inactive) | GI50 (HCT-15): > 57.7 µM | GI50 (SK-MEL-28): > 77.8 µM (inactive) | GI50 (OVCAR-3): > 100 µM (inactive)
